Source: US20220168392A1 (priority 2019, published 2022)
Where “and” joins values, the source holds several entries; their conditions need not be identical. Identical values can stand only once. Square brackets hold non-standard residues; d marks the D form. * marks the point of attachment. 2Nal = N[C@@H](Cc1ccc2ccccc2c1)C(=O)O; Propionyl = CCC(=O)*; Sar = CNCC(=O)O

Columns and labels:
[1] = system: Dog; assay: Maximum platelet elevation relative to baseline in normal healthy dogs, single escalating doses; assay type: in vivo; set-up: key to pharmacodynamics (PD) effect class of the dose (beneficial effects on survival): **: large pharmacodynamics (PD) effect; *: modest effect; conditions: for Dog Max Platelet Ratio: TOX6985; for maximum platelet elevation: canine
Description: The ratio of the maximum platelet counts to the baseline platelet counts following single escalating doses of RWJ-800088 to mice, rats, dogs, rhesus monkeys and human healthy volunteers is shown in Table 5. The dose required to achieve a 2-3.5-fold elevation in humans is ˜100-fold lower compared to mice, ˜1,000-fold lower compared to rats and >10,000-fold lower compared to canines and NHPs. […] The species differences in potency has been described for other TPO mimetics in the literature and is attributed to differences in receptor affinity (Erickson-Miller C L, et al. Discovery and characterization of a selective, nonpeptidyl thrombopoietin receptor agonist. Exp. Hematol. 2005; 33:85-93). […] It is discovered that the dose of RWJ-800088 that produces a survival benefit and protects against vascular and organ injury is the dose that produces a 2-4 fold elevation of platelets (Table 6).

[2] = system: CD2F1 male mice exposed to TBI; assay: 30-day survival after total body irradiation (TBI) in CD2F1 mice; assay type: in vivo, mouse; conditions: for Survival Differential (Treatment-Vehicle) / Survival treatment: CD2F1 M
[3] = 9.25 Gy, 0.3 mg/kg single dose, Post 4 hr
[4] = 9.25 Gy, 0.3 mg/kg single dose, Pre −24 hr
[5] = 9.3 Gy, 0.3 mg/kg single dose, Post 24 hr
[6] = 9.3 Gy, 1 mg/kg single dose, Post 24 hr
[7] = 9.35 Gy, 0.1 mg/kg single dose, Post 24 hr
[8] = 9.35 Gy, 0.3 mg/kg single dose, Post 24 hr, listed as TPOm, 0.3 mg/kg
[9] = 9.35 Gy, 0.3 mg/kg, 2 doses 12 hours apart, Post, first dose 24 hr
[10] = 9.35 Gy, 0.3 mg/kg, 3 doses 8 hours apart, Post, first dose 24 hr
[11] = 9.35 Gy, 1 mg/kg single dose, Post 24 hr
[12] = 9.35 Gy, 2 mg/kg single dose, Post 24 hr
[13] = 9.35 Gy, 3 mg/kg single dose, Post 24 hr
[14] = 9.75 Gy, 0.1 mg/kg single dose, Post 4 hr
[15] = 9.75 Gy, 0.1 mg/kg single dose, Pre −24 hr
[16] = 9.75 Gy, 0.3 mg/kg single dose, Post 4 hr
[17] = 9.75 Gy, 0.3 mg/kg single dose, Pre −2 hr
[18] = 9.75 Gy, 0.3 mg/kg single dose, Pre −12 hr
[19] = 9.75 Gy, 0.3 mg/kg single dose, Pre −24 hr, listed as TPOm, 0.3 mg/kg
[20] = 9.75 Gy, 1 mg/kg single dose, Post 4 hr, listed as TPOm, 1 mg/kg
[21] = 9.75 Gy, 1 mg/kg single dose, Post 8 hr
[22] = 9.75 Gy, 1 mg/kg single dose, Post 12 hr
[23] = 9.75 Gy, 1 mg/kg single dose, Pre −24 hr
[24] = 9.75 Gy, 2 mg/kg single dose, Pre −24 hr
[25] = 9.75 Gy, 3 mg/kg single dose, Post 4 hr

methoxypolyethyleneglycol20000-propionyl-L-Isoleucyl-L-Glutamyl-Glycyl-L-Prolyl-L-Threonyl-L-Leucyl-L-Arginyl-L-Glutaminyl-L-2-Naphthylalanyl-L-Leucyl-L-Alanyl-L-Alanyl-L-Arginyl-Sarcosyl-Ne-(methoxypolyethyleneglycol20000-propionyl-L-Isoleucyl-L-Glutamyl-Glycyl-L-Prolyl-L-Threonyl-L-Leucyl-L-Arginyl-L-Glutaminyl-L-2-Naphthylalanyl-L-Leucyl-L-Alanyl-L-Alanyl-L-Arginyl-Sarcosyl-)-Lysinamide ({mPEG 20 kDa-Propionyl}-IEGPTLRQ[2Nal]LAAR[Sar]K-NH2; also: dimer: second identical mPEG-propionyl chain on Lys Nε of C-terminal lysinamide) [RWJ-800088]
Average of the Maximum Platelet Elevation/Baseline Platelet Counts ([1]; Dog, dose 10000 μg/kg): 1.7
pharmacodynamics (PD) effect class of the dose (beneficial effects on survival) ([1]; Dog, dose 10000 μg/kg): *
Dog Max Platelet Ratio ([1]; dose 300 μg/kg): 1.0 ± 0.3
Dog Max Platelet Ratio ([1]; dose 3000 μg/kg): 1.4 ± 0.5
Dog Max Platelet Ratio ([1]; dose 10000 μg/kg): 1.7 ± 0.5
maximum platelet elevation [1]: ~7.7 fold
maximum platelet elevation ([1]; listed as TPOm): ~1.7 fold
dose dependence of survival ([2]; CD2F1, 24 hours post-TBI (9.3 Gy), doses 0.1 to 3 mg/kg (FIG. 12A)): increase in survival from 0.1 to 1 mg/kg and then a slight reduction in the survival benefit at 2 and 3 mg/kg
Survival Differential (Treatment-Vehicle) [2, 3]: 53%
Survival treatment [2, 3]: 88%
Survival Differential (Treatment-Vehicle) [2, 4]: 41%
Survival treatment [2, 4]: 83%
Survival Differential (Treatment-Vehicle) [2, 5]: 42%
Survival treatment [2, 5]: 71%
Survival Differential (Treatment-Vehicle) [2, 6]: 50%
Survival treatment [2, 6]: 79%
Survival Differential (Treatment-Vehicle) [2, 7]: 25%
Survival treatment [2, 7]: 58%
Survival treatment ([2]; 9.35 Gy, 0.3 mg/kg single dose, Post 24 hr, 0.3 mg/kg): 71%
Survival Differential (Treatment-Vehicle) [2, 8]: 25% and 17%
Survival treatment [2, 8]: 58% and 71%
Survival Differential (Treatment-Vehicle) [2, 9]: 21%
Survival treatment [2, 9]: 54%
Survival Differential (Treatment-Vehicle) [2, 10]: 8%
Survival treatment [2, 10]: 50%
Survival Differential (Treatment-Vehicle) [2, 11]: 29%
Survival treatment [2, 11]: 63%
Survival Differential (Treatment-Vehicle) [2, 12]: 17%
Survival treatment [2, 12]: 50%
Survival Differential (Treatment-Vehicle) [2, 13]: 13%
Survival treatment [2, 13]: 46%
Survival Differential (Treatment-Vehicle) [2, 14]: 21%
Survival treatment [2, 14]: 42%
Survival Differential (Treatment-Vehicle) [2, 15]: 92%
Survival treatment [2, 15]: 92%
Survival Differential (Treatment-Vehicle) [2, 16]: 42%
Survival treatment [2, 16]: 63%
Survival Differential (Treatment-Vehicle) [2, 17]: 58%
Survival treatment [2, 17]: 92%
Survival Differential (Treatment-Vehicle) [2, 18]: 96%
Survival treatment [2, 18]: 100%
Survival Differential (Treatment-Vehicle) [2, 19]: 92% and 96%
Survival treatment [2, 19]: 92% and 100%
Survival Differential (Treatment-Vehicle) [2, 20]: 67% and 60%
Survival treatment [2, 20]: 88% and 80%
Survival Differential (Treatment-Vehicle) [2, 21]: 80%
Survival treatment [2, 21]: 90%
Survival Differential (Treatment-Vehicle) [2, 22]: 50%
Survival treatment [2, 22]: 70%
Survival Differential (Treatment-Vehicle) [2, 23]: 92%
Survival treatment [2, 23]: 92%
Survival Differential (Treatment-Vehicle) [2, 24]: 96%
Survival treatment [2, 24]: 96%
Survival Differential (Treatment-Vehicle) [2, 25]: 33%
Survival treatment [2, 25]: 54%
Survival Differential (Treatment-Vehicle) ([2]; 9.75 Gy, 3 mg/kg single dose, Pre −24 hr): 100%
